Results as given in patent US20080311045A1, “Polymersomes for Use in Acoustically Mediated Intracellular Drug Delivery in vivo” (Biovaluation & Analysis, Inc., priority 2007, published 2008).

Legend:
[1] = Laser-photobleaching lipid probe diffusivity in membranes; assay type: physicochemical
[2] = Micropipette aspiration of polymersome membranes (elastic moduli, rupture, toughness); assay type: physicochemical; settings: micropipette aspiration at 23° C.
Experimental: A tool that has been used to measure many of the material properties of bilayer vesicles is, for example, “micropipette aspiration.” In micropipette aspiration, the rheology and material properties of micron-sized objects are measured using glass pipettes. Small, micron diameter pipettes are used to pick up, deform, and manipulate micron-sized objects, such as giant lipid vesicles. The aspiration pressure is controlled by manometers, in which the hydrostatic pressure in a reservoir connected to the micropipette is varied in relation to a fixed reference.
A deformable object is aspirated using a pressure driving force—or suction pressure—ΔP, and the object is drawn within the pipette to a projection length LP. […] The bending modulus is measured by exerting small tensions on the membrane, to smooth out thermally driven surface undulations. […] Procedures for this important technique and its many modification are readily available to those skilled in the art. […]
Analogous to a lipid bilayer, at low but increasing aspiration pressures, the thermally undulating polymersome membrane is progressively smoothed, increasing the projected area logarithmically with tension, τ. From the slope of this increase (i.e., in tension units of mN/m) versus the fractional change, α, in vesicle area, the bending modulus, Kb, is calculated (see, e.g., Evans et al., 1990) with the following equation: […]

lipid probe diffusivity [1]: approximately 3×10^−8 cm^2/s
area expansion modulus, Ka [2]: ~180 mN/m
SMILES: CCCCCCCC/C=C\CCCCCCCC(=O)O[C@H](COC(=O)CCCCCCCCCCCCCCCCC)COP(=O)([O-])OCC[N+](C)(C)C [SOPC, 1-stearoyl-2-oleoyl phosphatidylcholine]
